# Tests used:
# [1] = tested on: IL-6 levels in human whole blood stimulated with a TLR2 agonist; experiment: IRAK4 Whole Blood Assay (TLR2 agonist lipoteichoic acid-stimulated IL-6); type: cell-based; details: 10 μg/mL lipoteichoic acid, 5 hours, IL-6 readout
# Protocol: Human whole blood containing the anti-coagulant ACD-A was plated in 384-well plate (25 μL/well) and incubated with compounds for 60 minutes at 37° C. in a 5% CO2 incubator. The blood was stimulated with a TLR2 agonist, 10 μg/mL final concentration of lipoteichoic acid (Invivogen, San Diego, Calif.) in 25 μL RPMI (Gibco) for 5 hours in a 5% CO2 incubator. At the end of the incubation, plates were centrifuged at 2300 rpm for 5 minutes. Supernatants were harvested and analyzed for IL-6 levels by Flow Cytometry beads assay (BD Biosciences, San Jose, Calif.).
# [2] = Caco-2 Permeability Assay; type: in vitro ADME; details: human, 3 μM compound, 2 hours at 37° C., direction not given
# Protocol: Caco-2 Permeability Assay
# Thirteen to 27 days prior to assay, Caco-2 cells were seeded onto collagen-coated polycarbonate filter membranes in 24-well transwell plates at a density of 1.45×10^5 cells/cm^2, approximately 4.8×10^4 cells per well. The cells were grown in a culture medium consisting of DMEM supplemented with 10% fetal bovine serum, 10 mM HEPES, 1% nonessential amino acids, 2 mM L-glutamine, 100 U/mL penicillin-G, and 100 μg/mL streptomycin. The culture medium was replaced every 3 days and the cells were maintained at 37° C. in a 95% relative humidity and 5% CO2 atmosphere. The cells were evaluated for tight junction formation just prior to assay. The test compound was solubilized to 10 mM in 100% DMSO and diluted to 3 μM in assay buffer. Permeability studies were initiated by adding 200 μL assay buffer plus/minus compound to the apical transwell compartment and 600 μL assay buffer plus/minus compound to the basolateral compartment of the 24-well transwell low-binding cluster plate. For apical-to-basolateral (A to B) permeability (absorptive direction), buffer containing compound was placed in the apical compartment (donorwells), while buffer alone was placed in the corresponding basolateral compartments (receiverwells). For basolateral-to-apical (B to A) permeability (secretive direction), buffer containing compound was placed in the basolateral compartment (donor wells), while buffer alone was placed in the corresponding apical compartments (receiver wells). Transwells were then incubated for 2 hours at 37° C. in a 95% relative humidity and 5% CO2 atmosphere with gentle agitation. Following incubation, 100 μL was removed from each apical and basolateral compartment and transferred to 96-well low binding plates that had been previously loaded with 100 μL/well of acetonitrile containing 250 nM propranolol, 250 nM diclofenac, and 500 nM tolbutamide as internal standards. The samples were subsequently analyzed by LC-MS/MS to determine concentrations of compound.
# IRAK4 = IRAK4 (Homo sapiens (Human), UniProt Q9NWZ3); experiment: IRAK4 Inhibition Assay; type: biochemical; details: ATP 500 μM; IRAK4 0.6 nM; 60 min at room temperature
# Protocol: The assays were performed in U-bottom 384-well plates. The final assay volume was 30 μL prepared from 15 μL additions of enzyme and substrates (fluoresceinated peptide and ATP) and test compounds in assay buffer (20 mM HEPES pH 7.2, 10 mM MgCl2, 0.015% Brij 35 and 4 mM DTT). The reaction was initiated by the combination of IRAK4 with substrates and test compounds. The reaction mixture was incubated at room temperature for 60 min. and terminated by adding 45 μL of 35 mM EDTA to each sample. The reaction mixture was analyzed on the Caliper LABCHIP® 3000 (Caliper, Hopkinton, Mass.) by electrophoretic separation of the fluorescent substrate and phosphorylated product. Inhibition data were calculated by comparison to no enzyme control reactions for 100% inhibition and vehicle-only reactions for 0% inhibition. The final concentrations of reagents in the assays are ATP, 500 μM; FL-IPTSPITTTYFFFKKK peptide 1.5 μM; IRAK4, 0.6 nM; and DMSO, 1.6%.
# IRAK4, sequence (Q9NWZ3 whole entry): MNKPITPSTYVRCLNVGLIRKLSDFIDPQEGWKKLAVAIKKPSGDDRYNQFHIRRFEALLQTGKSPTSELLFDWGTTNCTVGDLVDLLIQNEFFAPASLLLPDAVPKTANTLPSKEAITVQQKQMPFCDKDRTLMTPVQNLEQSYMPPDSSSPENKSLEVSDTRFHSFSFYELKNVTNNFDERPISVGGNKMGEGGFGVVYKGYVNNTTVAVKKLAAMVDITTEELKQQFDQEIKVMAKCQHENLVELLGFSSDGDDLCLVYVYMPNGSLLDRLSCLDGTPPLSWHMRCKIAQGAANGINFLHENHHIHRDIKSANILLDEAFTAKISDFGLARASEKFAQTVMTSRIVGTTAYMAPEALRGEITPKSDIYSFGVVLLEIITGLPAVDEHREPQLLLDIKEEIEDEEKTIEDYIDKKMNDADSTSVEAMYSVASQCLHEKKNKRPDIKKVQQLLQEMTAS
compound,measurement,setting,value
"COc1nc2c(OC[C@H]3NC(=O)[C@@H](F)[C@H]3C)csc2cc1C(N)=O [Example 28, 3-(((2S,3S,4S)-4-fluoro-3-methyl-5-oxopyrrolidin-2-yl)methoxy)-5-methoxythieno[3,2-b]pyridine-6-carboxamide]",EC50,[1],736 nM
same,"Papp at 2 h, 3 µM",[2],5.8 ×10⁻⁶ cm/s
same,IC50,IRAK4,13.3 nM
